Assay results from patent US10034898B2, “Methods and systems for treatment of inflammatory diseases with nitric oxide” (priority 2012, dated 2018).

Key:
[1] = test system: micro-capillary blood flow to skin; test: Laser Doppler capillary blood flow study, Example 5 (closed Hilltop chamber on forearm); format: in vivo, humans; details: applied to the skin at 1/10% in alcohol
Method: This example illustrates delivery of nitric oxide formulations similar to those discussed herein in humans. In these studies, laser Doppler studies were performed on three human female subjects. […] The formulations used produce positive, almost immediate results when applied to the skin which, in these studies, was manifested by vasodilatation of the cutaneous vascular system.
While nitric oxide has many physiological effects, the purpose of these studies was to measure physiological effects that would be relatively easy to determine, and which would be noninvasive. […] Nitric oxide is capable of […] the capillary bed, and thus, laser Doppler was selected.
The formulation used in these studies contained nitric oxide dispersed in a lipid matrix. […] This provided a stable measuring device as determined by multiple normal evaluations of the capillary blood flow without treatment of nitric oxide.
A known positive control, methyl nicotinate, was applied to the skin at a concentration of 1/10% in alcohol. […] The laser Doppler device accurately measured these parameters.
In these studies, the participants were healthy females aged 30 to 55 years. They were in good health as determined by the medical history and were not taking any prescription medications. All study participants read and signed the informed consent statement prior to any study procedures being performed. […]

[2] = test system: capillary circulation of the skin; test: Laser Doppler circulation study in five human subjects, Example 7; format: in vivo; details: positive control formulation containing 0.1% methyl nicotinate, vs untreated skin
Excerpt: This example illustrates delivery of nitric oxide formulations to five human subjects, using procedures and formulations similar to those discussed in Example 5. Each person served as their own control for the testing. A Moor Instruments Laser Doppler was used to determine circulation. […] The formulations used produce positive, almost immediate results when applied to the skin which, in these studies, was manifested by vasodilatation of the cutaneous vascular system.
For each subject, the following creams were applied: a negative control formulation (containing no NO), 0.010 gram of a 10,000 ppm NO formulation, 0.020 gram of a 10,000 ppm NO formulation, and a positive control formulation containing 0.1% methyl nicotinate. The formulations were prepared using procedures similar to those discussed in Example 1.

COC(=O)c1cccnc1 [methyl nicotinate]
laser Doppler response of positive control [1]: rapid response typical of the vasodilator
vasodilatation [2]: vasodilatation was observed
